Test [1] is described as follows: NIH3T3 cell viability loss – ATP luminescence, mouse fibroblasts, counter-screen, dose response (AID 2010).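 Further: cells exposed to compound for about 90 hours before reading.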 Type of test: functional, cell-based.
Test [2] in a line: Trypanosoma cruzi growth suppression in host cells – NIH3T3 host cells, beta-gal luminescence, confirmation (AID 2044).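 Further: intracellular parasites grown in NIH/3T3 mouse fibroblasts as host cells; luminescent beta-galactosidase reporter signal from transgenic T. cruzi replicating inside host cells; inhibitors lower the luminescence signal.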 Type of test: functional, cell-based.
For test [3], the target named is Protein Wnt-3a (Mus musculus, UniProt P27467). As to the kind of experiment: antagonism of Wnt3a pathway luciferase reporter – Wnt-LIGHT cells, luminescence, selectivity assay for Gli-SUFU antagonist project, dose response (AID 651570).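 Further: Wnt-LIGHT reporter cells stimulated with conditioned medium from Wnt3a-producing cells.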 Type of test: functional. Conditions: read-out: IC50_Mean.
Sequence of Protein Wnt-3a (P27467 whole entry, the tested form may be a part): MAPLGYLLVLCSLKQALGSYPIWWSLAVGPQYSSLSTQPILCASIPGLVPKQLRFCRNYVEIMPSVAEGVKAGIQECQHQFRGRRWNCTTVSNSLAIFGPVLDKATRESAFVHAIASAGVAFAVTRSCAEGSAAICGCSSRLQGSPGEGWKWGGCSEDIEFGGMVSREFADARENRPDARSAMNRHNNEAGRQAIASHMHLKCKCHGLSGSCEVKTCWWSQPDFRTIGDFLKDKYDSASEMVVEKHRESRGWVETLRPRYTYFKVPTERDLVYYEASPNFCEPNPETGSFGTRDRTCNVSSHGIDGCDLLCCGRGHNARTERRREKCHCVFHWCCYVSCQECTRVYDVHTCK
Test [4] is described as follows: inhibition of ARNT PAS-B/TACC3 complex formation – biochemical, AlphaScreen, cherry-picked samples, confirmation (AID 651703).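 Further: His-tagged ARNT PAS-B domain paired with GST-TACC3 E629A dimer coactivator fragment; potency of inhibitors that break up the complex and lower AlphaScreen signal.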 It counts as functional, Homo sapiens.
Test [5] deals with T1, Hexokinase-1 (Homo sapiens, UniProt P19367).
T1 sequence (P19367 whole entry): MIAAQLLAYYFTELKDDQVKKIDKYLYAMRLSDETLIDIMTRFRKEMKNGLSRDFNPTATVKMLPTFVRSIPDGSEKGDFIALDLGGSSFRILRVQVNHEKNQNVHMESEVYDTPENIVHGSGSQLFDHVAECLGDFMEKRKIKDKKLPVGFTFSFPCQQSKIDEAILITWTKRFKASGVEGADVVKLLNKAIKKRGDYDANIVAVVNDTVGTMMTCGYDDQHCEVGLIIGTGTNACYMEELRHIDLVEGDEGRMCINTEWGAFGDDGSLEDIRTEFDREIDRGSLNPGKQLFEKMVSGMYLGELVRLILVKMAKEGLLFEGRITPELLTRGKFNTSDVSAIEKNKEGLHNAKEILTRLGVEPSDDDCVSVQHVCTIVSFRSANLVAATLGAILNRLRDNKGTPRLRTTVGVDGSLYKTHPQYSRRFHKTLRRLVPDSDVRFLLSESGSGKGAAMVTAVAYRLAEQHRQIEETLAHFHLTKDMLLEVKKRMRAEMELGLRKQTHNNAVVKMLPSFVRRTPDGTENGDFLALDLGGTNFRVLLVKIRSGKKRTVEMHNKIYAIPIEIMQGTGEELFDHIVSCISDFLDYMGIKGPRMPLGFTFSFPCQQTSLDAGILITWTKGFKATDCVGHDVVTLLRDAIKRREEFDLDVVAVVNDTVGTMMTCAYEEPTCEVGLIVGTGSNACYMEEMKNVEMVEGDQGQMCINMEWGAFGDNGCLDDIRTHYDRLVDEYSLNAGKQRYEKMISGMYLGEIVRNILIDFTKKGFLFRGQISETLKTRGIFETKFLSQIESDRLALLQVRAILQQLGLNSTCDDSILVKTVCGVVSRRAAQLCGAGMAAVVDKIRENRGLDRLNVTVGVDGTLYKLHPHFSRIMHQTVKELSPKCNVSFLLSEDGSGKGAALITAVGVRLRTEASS
Description: SAR analysis of small molecule inhibitors of hexokinase domain containing I (HKDC1) in the hexokinase 1 selectivity assay. [Related pubchem assays (depositor defined):AID493160, AID493190]. Type of test: functional.

Test [6] concerns the target T2, Hexokinase HKDC1 (Homo sapiens, UniProt Q2TB90).
T2 sequence (Q2TB90 whole entry): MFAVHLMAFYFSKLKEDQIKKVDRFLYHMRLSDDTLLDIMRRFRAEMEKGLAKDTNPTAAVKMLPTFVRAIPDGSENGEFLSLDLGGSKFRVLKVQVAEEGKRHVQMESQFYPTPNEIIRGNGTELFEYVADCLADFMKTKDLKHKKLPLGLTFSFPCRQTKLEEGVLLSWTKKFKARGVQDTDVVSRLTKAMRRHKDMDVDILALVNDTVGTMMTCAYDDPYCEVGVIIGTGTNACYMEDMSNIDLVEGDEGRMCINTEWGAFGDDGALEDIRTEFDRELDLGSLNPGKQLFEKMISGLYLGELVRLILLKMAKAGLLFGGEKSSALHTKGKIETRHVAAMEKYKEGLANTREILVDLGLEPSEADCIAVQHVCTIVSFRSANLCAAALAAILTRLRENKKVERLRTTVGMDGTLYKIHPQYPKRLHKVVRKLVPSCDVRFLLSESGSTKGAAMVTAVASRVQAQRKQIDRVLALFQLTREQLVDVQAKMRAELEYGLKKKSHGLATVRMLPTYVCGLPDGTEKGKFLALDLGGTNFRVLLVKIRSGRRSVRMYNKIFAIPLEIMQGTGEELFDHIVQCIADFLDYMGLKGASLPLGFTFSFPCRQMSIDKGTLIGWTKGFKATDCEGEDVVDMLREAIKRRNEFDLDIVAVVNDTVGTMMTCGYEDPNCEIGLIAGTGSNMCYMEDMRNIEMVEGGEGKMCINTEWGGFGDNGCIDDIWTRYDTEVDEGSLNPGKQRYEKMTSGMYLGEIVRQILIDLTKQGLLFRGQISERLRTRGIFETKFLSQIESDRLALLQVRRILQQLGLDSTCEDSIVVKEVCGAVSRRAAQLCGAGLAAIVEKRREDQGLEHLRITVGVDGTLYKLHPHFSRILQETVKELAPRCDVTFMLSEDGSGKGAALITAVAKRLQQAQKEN
As to the kind of experiment: SAR analysis of small molecule inhibitors of hexokinase domain containing I (HKDC1). [Related pubchem assays (depositor defined):AID493160, AID493190]. It counts as functional.

The target in test [7] is T3, Interleukin-8 (Homo sapiens, UniProt P10145).
T3 sequence (P10145 whole entry): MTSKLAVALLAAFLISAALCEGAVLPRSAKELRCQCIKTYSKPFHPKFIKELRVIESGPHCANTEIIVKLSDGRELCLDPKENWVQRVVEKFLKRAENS
As to the kind of experiment: Dose Response confirmation of uHTS small molecule hits for cystic fibrosis induced NFkb Inhibitors in a PAF-induced IL8 counterscreen. The settings on record: read-out: IC50_Mean. Type of test: functional. For orientation: A counterscreen serves to expose hits that act by an unwanted route or on another target.

Test [8] concerns the target T4, Apoptotic protease-activating factor 1 (Homo sapiens, UniProt O14727).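 Further: caspase-3 cleavage of fluorogenic Rh110 DEVD substrate downstream of apoptosome activation.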
T4 sequence (O14727 whole entry): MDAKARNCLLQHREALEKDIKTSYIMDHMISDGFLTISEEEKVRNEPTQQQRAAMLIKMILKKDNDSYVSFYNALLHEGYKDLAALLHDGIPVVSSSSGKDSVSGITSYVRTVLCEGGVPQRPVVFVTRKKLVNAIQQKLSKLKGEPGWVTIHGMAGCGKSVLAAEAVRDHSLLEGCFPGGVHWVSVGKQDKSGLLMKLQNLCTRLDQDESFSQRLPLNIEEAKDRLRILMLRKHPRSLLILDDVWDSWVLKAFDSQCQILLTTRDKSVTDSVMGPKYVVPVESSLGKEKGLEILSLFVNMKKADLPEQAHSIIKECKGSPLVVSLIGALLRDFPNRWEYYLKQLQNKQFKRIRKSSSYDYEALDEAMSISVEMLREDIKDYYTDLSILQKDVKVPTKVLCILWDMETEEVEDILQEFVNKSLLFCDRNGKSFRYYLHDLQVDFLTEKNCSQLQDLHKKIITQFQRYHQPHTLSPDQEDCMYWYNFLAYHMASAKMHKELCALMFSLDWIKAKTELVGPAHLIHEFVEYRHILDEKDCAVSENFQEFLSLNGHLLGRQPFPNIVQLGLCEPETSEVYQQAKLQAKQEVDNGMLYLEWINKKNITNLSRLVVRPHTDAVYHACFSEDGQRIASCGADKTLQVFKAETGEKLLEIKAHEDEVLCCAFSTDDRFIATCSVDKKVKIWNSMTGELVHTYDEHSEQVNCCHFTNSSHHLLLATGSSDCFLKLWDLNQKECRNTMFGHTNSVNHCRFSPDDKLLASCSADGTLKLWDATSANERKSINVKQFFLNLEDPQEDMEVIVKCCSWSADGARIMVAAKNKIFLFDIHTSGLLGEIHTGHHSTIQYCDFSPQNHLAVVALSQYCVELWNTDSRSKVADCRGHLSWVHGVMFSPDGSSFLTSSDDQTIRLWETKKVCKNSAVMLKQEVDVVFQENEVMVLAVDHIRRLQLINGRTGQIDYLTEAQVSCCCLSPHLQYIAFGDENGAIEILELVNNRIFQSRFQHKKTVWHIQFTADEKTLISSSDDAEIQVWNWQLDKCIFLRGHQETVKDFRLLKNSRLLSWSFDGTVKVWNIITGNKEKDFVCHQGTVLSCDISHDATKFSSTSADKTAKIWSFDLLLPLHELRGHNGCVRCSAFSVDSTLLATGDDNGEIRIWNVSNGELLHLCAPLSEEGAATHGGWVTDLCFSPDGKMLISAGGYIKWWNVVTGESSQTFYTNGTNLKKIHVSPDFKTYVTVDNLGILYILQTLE
Description: SAR analysis of small molecule Activators of Apaf-1 in a Fluorescent assay. Type of test: functional. Conditions: read-out: EC50_Mean.

The target in test [9] is T5, High affinity choline transporter 1 (Homo sapiens, UniProt Q9GZV3).
T5 sequence (Q9GZV3 whole entry): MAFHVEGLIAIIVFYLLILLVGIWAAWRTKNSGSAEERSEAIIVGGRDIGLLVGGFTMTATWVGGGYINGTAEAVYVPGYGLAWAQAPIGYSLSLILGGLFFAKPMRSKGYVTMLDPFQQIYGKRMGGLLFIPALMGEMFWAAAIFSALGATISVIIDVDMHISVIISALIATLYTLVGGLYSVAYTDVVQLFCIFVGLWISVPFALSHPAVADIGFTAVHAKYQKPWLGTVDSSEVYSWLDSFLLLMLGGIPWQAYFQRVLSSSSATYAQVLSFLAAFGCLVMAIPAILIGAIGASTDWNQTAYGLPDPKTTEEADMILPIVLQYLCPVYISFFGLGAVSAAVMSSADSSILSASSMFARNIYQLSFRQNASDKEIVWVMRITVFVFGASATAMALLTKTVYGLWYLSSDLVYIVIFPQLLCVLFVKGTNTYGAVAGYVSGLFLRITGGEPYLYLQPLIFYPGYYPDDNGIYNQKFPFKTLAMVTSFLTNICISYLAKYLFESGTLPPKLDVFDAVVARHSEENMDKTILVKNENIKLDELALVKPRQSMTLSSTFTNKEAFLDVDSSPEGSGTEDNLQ
As to the kind of experiment: human choline transporter blockers, potency – cell-based, 5-point CRC, membrane potential dye, dose response (AID 504840). Type of test: functional.

Test [10] concerns the target T5, High affinity choline transporter 1. Description: human choline transporter blockers, potency – cell-based, 10-point CRC, membrane potential dye, dose response (AID 588401).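 Further: membrane potential dye fluorescence of choline-evoked depolarization via CHT.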 It counts as functional.
The target in test [11] is T6, Aminopeptidase N (Plasmodium falciparum FcB1/Columbia, UniProt O96935).
T6 sequence (O96935 whole entry): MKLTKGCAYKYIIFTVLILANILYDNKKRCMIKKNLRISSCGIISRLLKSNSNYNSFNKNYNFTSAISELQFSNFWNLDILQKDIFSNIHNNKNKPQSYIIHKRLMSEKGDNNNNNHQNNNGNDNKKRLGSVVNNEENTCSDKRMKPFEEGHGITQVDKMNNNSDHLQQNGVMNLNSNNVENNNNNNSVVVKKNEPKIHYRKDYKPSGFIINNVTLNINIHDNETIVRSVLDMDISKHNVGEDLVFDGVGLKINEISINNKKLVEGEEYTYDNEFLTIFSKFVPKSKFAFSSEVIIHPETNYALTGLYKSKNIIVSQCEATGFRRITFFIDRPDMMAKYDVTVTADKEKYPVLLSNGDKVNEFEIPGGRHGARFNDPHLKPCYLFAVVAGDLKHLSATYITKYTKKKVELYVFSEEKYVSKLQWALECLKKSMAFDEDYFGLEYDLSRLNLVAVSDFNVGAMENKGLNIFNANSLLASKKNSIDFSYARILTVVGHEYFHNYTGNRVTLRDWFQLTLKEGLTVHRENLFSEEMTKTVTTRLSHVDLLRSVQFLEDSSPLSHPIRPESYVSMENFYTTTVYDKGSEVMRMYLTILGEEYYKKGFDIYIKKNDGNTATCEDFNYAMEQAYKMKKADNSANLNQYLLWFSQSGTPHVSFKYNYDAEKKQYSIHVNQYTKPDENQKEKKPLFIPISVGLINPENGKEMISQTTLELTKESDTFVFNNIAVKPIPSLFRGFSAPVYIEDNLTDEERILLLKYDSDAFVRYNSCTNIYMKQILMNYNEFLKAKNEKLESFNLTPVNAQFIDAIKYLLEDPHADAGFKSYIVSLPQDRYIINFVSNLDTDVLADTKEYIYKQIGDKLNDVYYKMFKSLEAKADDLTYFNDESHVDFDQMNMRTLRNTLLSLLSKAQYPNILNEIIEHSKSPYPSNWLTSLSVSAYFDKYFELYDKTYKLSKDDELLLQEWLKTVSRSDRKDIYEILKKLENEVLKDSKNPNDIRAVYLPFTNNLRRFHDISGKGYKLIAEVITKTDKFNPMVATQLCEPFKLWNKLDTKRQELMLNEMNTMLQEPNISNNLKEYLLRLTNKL
Description: malaria alanyl aminopeptidase activity blockers – biochemical, fluorogenic H-Leu-NHMec substrate, 1536-well (AID 1445). Also on record: species or system Plasmodium falciparum 3D7, 3D7.

For test [12], the target named is Potassium voltage-gated channel subfamily KQT member 2 (Rattus norvegicus, UniProt O88943). As to the kind of experiment: blockers of KCNQ2 channel current – cell-based, automated electrophysiology, set II, rat KCNQ2, dose response (AID 588637). It counts as functional.
Sequence of Potassium voltage-gated channel subfamily KQT member 2 (O88943 whole entry): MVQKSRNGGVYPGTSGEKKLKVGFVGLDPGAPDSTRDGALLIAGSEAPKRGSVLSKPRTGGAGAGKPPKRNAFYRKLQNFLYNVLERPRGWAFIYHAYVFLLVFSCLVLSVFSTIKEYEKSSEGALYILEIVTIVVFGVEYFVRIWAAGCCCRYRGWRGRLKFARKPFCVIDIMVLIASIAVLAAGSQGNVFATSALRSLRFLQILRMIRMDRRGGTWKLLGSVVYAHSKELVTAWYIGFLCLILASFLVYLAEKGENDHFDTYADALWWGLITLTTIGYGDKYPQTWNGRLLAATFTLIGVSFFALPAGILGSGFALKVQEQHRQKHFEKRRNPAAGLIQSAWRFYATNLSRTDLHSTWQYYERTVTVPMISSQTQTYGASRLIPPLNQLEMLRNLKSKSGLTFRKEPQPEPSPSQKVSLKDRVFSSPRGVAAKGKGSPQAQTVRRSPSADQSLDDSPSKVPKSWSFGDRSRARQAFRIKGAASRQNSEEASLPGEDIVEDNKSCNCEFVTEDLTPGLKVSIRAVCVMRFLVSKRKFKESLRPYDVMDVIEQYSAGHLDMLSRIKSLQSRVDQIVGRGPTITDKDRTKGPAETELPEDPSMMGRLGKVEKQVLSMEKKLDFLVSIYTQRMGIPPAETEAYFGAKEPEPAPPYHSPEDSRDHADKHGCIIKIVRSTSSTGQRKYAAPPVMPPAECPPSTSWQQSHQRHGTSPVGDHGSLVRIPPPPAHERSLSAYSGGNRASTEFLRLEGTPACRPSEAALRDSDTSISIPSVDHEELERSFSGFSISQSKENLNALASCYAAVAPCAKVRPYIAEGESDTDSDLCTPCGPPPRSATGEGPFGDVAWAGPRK

Structures are written as SMILES. Calls of active or inactive are those of the source.

As to `c1ccc(-c2c[n+](-c3ccccc3)c3n2CCS3)cc1`, the EC50 in test [1] was > 60 µM (inconclusive); in test [2], 2.27 µM (active). For the same compound, the IC50 in test [3] is 3.05 µM (active).

On to `COc1cccc(/C=N/NC(=O)CNC(=O)c2cccnc2)c1O`, for which, in test [4], the AC50 is 81.1 µM (active). With `COc1cc2c(cc1OC)-c1cc(N3CCc4ccccc4C3)nc(=O)n1CC2`, the IC50 was 69 µM (inactive) in [5] and 65.7 µM (inactive) in test [6]. As for `CC(C)C[C@@H](CN1CCCC1CN1C(=S)NC[C@@H]1Cc1ccc(O)cc1)N1C[C@H](Cc2ccc(O)cc2)N(CCc2ccccc2)C1=S` (some centres undefined), the IC50 in test [7] is 9.82 µM (active). `CCOc1ccccc1NC(=O)CCS(=O)(=O)c1cc2c(cc1Cl)NC(=O)CO2`: in [8], the EC50 was > 100 µM (inactive). Regarding `Cc1cccc(C)c1-n1cccc1/C=C1/C(=N)N2C(=NC1=O)SN=C2S(C)(=O)=O`, the IC50 in test [9] was 8.3 µM (active); in test [10], 4.47 µM (active); in test [11] it was 34.4 µM (active). With `COc1cccc(/C=C/c2nc3ccccc3c(=O)n2Cc2ccccc2)c1`, the IC50 in [5] and in test [6] was > 80 µM (inactive) each time.

On to `COc1ccccc1N1CCN(C(=O)C(Cc2ccccc2)NC(=O)C2CCCCC2)CC1` (centres undefined), for which the IC50 in [12] was 5.72 µM (active).

As usually defined, the AC50 is the concentration giving half of the maximal activity seen.

For the origin of these results see ChEMBL document CHEMBL1201862, “PubChem BioAssay data set” (2004).
